From US8957087B2, “Heterocyclic substituted acardite derivate and application thereof” (Jiangsu Provincial Institute of Materia Medica Co., Ltd., priority 2009, dated 2015)
Several values for one entry are separate records, joined by “and”; a condition that tells them apart may be missing. Identical values can stand only once. Like-named read-outs stand apart in the source and are kept apart here. Marks after values point to notes of the source that are not given here.

Assays:
[1] = system: Raf-1(truncated); assay: Raf-1 inhibitor screening by chemoluminescence method; type: biochemical; details: Final concentration 1 x 1.0*10^−5 mol/ml
Description: 1. Inhibitory activity of the compound of the present invention on raf kinase
Raf-1 inhibitor screening by chemoluminescence method
Westernblot electrophoresis apparatus Rotaryshaker
Raf-1(truncated), Magnesium/ATP Cocktail, MEK1 unactive

[2] = system: human lung cancer cell strain A549; assay: MTT assay, inhibition of growth of human lung cancer cell strain A549; type: cell-based
Protocol: 4. Using 3-(4,5-dimethylthiazol-2-yl)-2,5-diphenyl tetrazolium bromide assay (MTT) to detect the inhibition effects on the growth of human lung cancer cell strain A549
[Test materials] MTT working solution, F12 medium containing 10% FBS, continuous injectors
(§1) [Tested compound] Compounds 1-38
(§2) [Positive control medicine] Sorafenib, compounds A′, B′, C′ with no substituent or only amino formyl in A ring
The inhibition rate is calculated as follows:
(§3) Relative OD value of conrol well=OD value of control well−OD value of blank well
(§4) Relative OD value of drug well=OD value of drug well−OD value of blank well

[3] = system: human high-metastic lung cancer cell 95D; assay: Inhibition of human high-metastic lung cancer cell 95D migration (Boyden Chamber Transwell); type: cell-based; details: Final concentration 1 x 1.0*10^(−5) mol/L
Protocol: 5 Inhibition effects of compounds on human high-metastic lung cancer cell 95D migration
[Test materials] Boyden Chamber Transwell chamber (with pore size of 8 μm), human high-metastic lung cancer cell 95D cell strain, 1640 medium containing 10% FBS, 1640 medium containing no serum
as §1, §2
(§5) The inhibition rate is calculated as follows: […]

[4] = system: lung cancer cell A549; assay: Effects on the adhesive ability of lung cancer cell A549; type: cell-based, human; details: Final concentration 1 x 1.0*10^(−5) mol/L
Protocol: 6. Effects of tested compounds on the adhesive ability of lung cancer cell A549
[Test materials] gelatin, CCK8, poly-lysine (PLL), A549 cell stains, 1640 medium containing 10% FBS
(§6) [Tested compound] Compounds 1-38 to be tested
as §2, §5
Dosing dosing cells without cell group (gelatin adhesive OD/PLL adhesion OD)−Dosing cell group (gelatin adhesive OD/PLL adhesion OD value)
Dosing dosing cells without cell group (gelatin adhesive OD/PLL adhesion OD value)

[5] = system: human umbilical vein endothelial cell HUVEC; assay: Growth of human umbilical vein endothelial cell HUVEC by CCK8 method; type: cell-based; details: Final concentration 1 x 1.0*10^(−5) mol/L
Description: 7. Effects of tested compounds on the growth of human umbilical vein endothelial cell HUVEC cell by CCK8 method
[Test materials] CCK8, human umbilical vein endothelial cell HUVEC cell, 1640 medium containing 10% FBS
as §6, §2, §3, §4

[6] = system: human umbilical vein endothelial cell HUVEC; assay: Lumen formation ability of HUVEC (Matrigel method); type: cell-based; details: Final concentration 1 x 1.0*10^(−5) mol/L
Description: 8. Inhibition effects of compounds on the lumen formation ability of human umbilical vein endothelial cell HUVEC
[Experimental principles] The human umbilical vein endothelial cells have ability of spontaneously forming blood lumen on Matrigel, which can be used to simulate the process of angiogenesis in vivo. We used Matrigel method to investigate the effects of the compound on the lumen formation ability of human umbilical vein endothelial cell HUVEC.
[Test materials] HUVEC (taking generation 3 to 5 cells for experiments after obtained from primary separation and cultured at 37 under the conditions of 5% CO2), Matrigel, cell culture medium M199.
as §1, §2, §5

[7] = system: human lung cancer A549 transplantation tumor; type: in vivo; details: BALB/cA nude mice; 60 mg/kg, 6 times every week for 3 weeks; Sorafenib oral 60 mg/kg
Protocol: 9. Tumor inhibition rate of tested compounds on human lung cancer A549 cell transplantation model in nude mice
(§7) [Test animals] female BALB/cA nude mice, 35-40 days old, with weight of 18-22g. There were 12 mice in the negative conrol group and 6 mice in the treatment group.
(§8) The dosage of the compound was 60 mg/kg, 6 times every week for 3 weeks. […] Equal amount of normal saline was administrated in the negative control group. Observe for one week after administration.

[8] = system: human liver cancer cell bel-7402 transplantation tumor; type: in vivo; details: 60 mg/kg
Protocol: 10. Tumor inhibition rate of tested compounds on human liver cancer cell bel-7402 transplantation tumor model in nude mice
as §7, §8

[9] = system: renal carcinoma cell line GCR-1 transplanted tumor; type: in vivo, BALB/cA nude mice; details: BALB/cA nude mice; 60 mg/kg, 6 times every week for 3 weeks; Sorafenib oral 60 mg/kg
Protocol: 11. Tumor inhibition rate of medicines on renal carcinoma cell line GCR-1 transplanted tumor model in nude mice
as §7
[Test method] […] The dosage of the medicine was 60 mg/kg, 6 times every week for 3 weeks. […] Equal amount of normal saline was administrated in the negative control group. Observe for one week after administration.

[10] = system: mice S180 sarcoma; assay: Experimental therapeutic action on S180 sarcoma mice; details: for Tumor growth inhibition rate (%): mice S180 sarcoma, 60 mg/kg orally for 9 days
Protocol: Experimental therapeutic action of the compound in the present invention on S180 sarcoma mice
18-25 g female ICR mice and well grown 7-11 day old mice sarcoma S180 tumor seeds were selected, and the seeds were inoculated into the subcutaneous at the right axillary. After inoculated 24 hours, these mice were randomly divided into cages and orally administrated 60 mg/kg for 9 days. On 10 day, the animals were killed and weighed, and the tumor weights were weighed to calculate average tumor weight in each group, followed by calculating the tumor inhibition rate according to the following formula and T test.

[11] = system: Human colon cancer HT-29 transplantable tumor; assay: Human colon cancer HT-29 transplantable tumor in nude mice; details: for Relative tumor reproduction rate T/C (%): HT-29 in nude mice
Protocol: Experimental therapeutic action of the compound in the present invention on Human colon cancer HT-29 transplantable tumor in nude mice.
Take eugenic tumor tissues and cut into about 1.5 mm^3, and then incoculate subcutaneously at the right armpit of nude mice under the sterile conditions. The diameter of the transplantable tumor in nude mice was determined with a vernier caliper, and the animals were divided into groups after the tumors were grown to 100-300 mm^3. Using the method of measuring the tumor diameter, dynamically observe the antitumor effects of tested materials. The diameter of the tumor was determined three times every week and the mouse weight was weighed at the same time. […] The solvent was intragastrically administrated as the control for continuous 9 times. Equal amount of control was administrated in the negative control group.
Tumor volume (TV) is calculated as: TV=½×a×b^2, wherein a and b respectively represent length and width.
Relative tumor volume (RTV) is calculated as: RTV=TVt/TV0, wherein TV0 is the tumor volume when administrated according to different cages and TVt is the tumor volume measured each time.
Relative tumor reproduction rate T/C (%) is calculated as follows:
TRTV: RTV in the treatment group; CRTV: RTV in the negative control group.
The test results used relative tumor reproduction rate T/C (%) as evaluating indicator of anti-tumor activity.

[12] = Final concentration 1 x 1.0*10^(−5) mol/L
[13] = BALB/cA nude mice, 6 times every week for 3 weeks, Sorafenib oral 60 mg/kg

Compound	Inhibition rate % on raf kinase [1] [%]	Inhibition rate, growth of human lung cancer cell A549 [2, 12] [%]	Inhibition rate, 95D cell strain migration [3] [%]	Inhibition rate, adhesion ability of human lung cancer cell A549 [4] [%]	Inhibition rate, growth of HUVEC cell [5] [%]	Inhibition rate, lumen formation ability of HUVEC [6] [%]	Relative tumor reproduction rate T/C (%) on human lung cancer A549 transplantation tumor in nude mice [7] [%]	Relative tumor reproduction rate T/C (%) on human liver cancer cell bel-7402 transplantation tumor model in nude mice [8, 13] [%]	Relative tumor reproduction rate T/C (%) on human renal carcinoma GCR-1 cell transplanted tumor model in nude mice [9] [%]	Tumor growth inhibition rate (%) [10] [%]	Relative tumor reproduction rate T/C (%) ([11]; 60 mg/kg ig 9 times)	Inhibition rate, growth of human lung cancer cell A549 [2] [%]	other results
CNC(=O)c1cc(Oc2ccc(NC(=O)Nc3ccc(F)c(C(F)(F)F)c3)cc2)c2cc(OC)ccc2n1 [Compound 2]	61.1	61.11	85.17	75.15	13.11	75.14	35.3	35.4	23.2				Tumor weight x ± SD ([10]; 60 mg/kg ig for 9 days, day 10): 0.87 ± 0.24 g; Tumor growth inhibition rate (%) ([10]; 60 mg/kg): 46.0% and 24.1%; Weight (g) Start ([10]; mouse body weight at start, 60 mg/kg ig): 18.9 ± 1.7 g; Weight (g) Final ([10]; mouse body weight final, 60 mg/kg ig for 9 days): 20.9 ± 2.3 g; Relative tumor reproduction rate T/C (%) ([11]; 60 mg/kg ig 9 times, 60 mg/kg): 39.45%; Weight (g) d0 ([11]; nude mouse body weight d0, 60 mg/kg): 19.9 ± 0.8 g; Weight (g) d13 ([11]; nude mouse body weight d13, 60 mg/kg ig 9 times): 21.0 ± 0.8 g; RTV ([11]; relative tumor volume, 60 mg/kg ig 9 times): 2.00 ± 0.41; TV d0 ([11]; tumor volume d0, 60 mg/kg): 133 ± 23; TV d13 ([11]; tumor volume d13, 60 mg/kg ig 9 times): 265 ± 100
CNC(=O)c1nc(Oc2ccc(NC(=O)Nc3ccc(F)c(C(F)(F)F)c3)cc2)c2ccc(F)cc2n1 [Compound 5, N-(4-fluoro-3-(trifluoromethyl)phenyl)-N′-(4-(2-(N-methylaminoformoxyl)-4-(7 fluoroquinazolinyl)oxy)phenyl)urea]	98.9	93.50	97.51	87.58	8.50	87.50	11.6	15.7	11.2	49.3	38.24		
CNC(=O)c1nc(Oc2ccc(NC(=O)Nc3ccc(Br)c(C(F)(F)F)c3)cc2)c2ccc(F)cc2n1 [Compound 6, N-(4-bromo-3-(trifluoromethyl)phenyl)-N′-(4-(2-(N-methylaminoformoxyl)-4-(7 fluoroquinazolinyl)oxy)phenyl)urea]	80.1	92.50	93.71	93.59	7.50	90.55	15.9	19.5	12.5	51.2	39.58		
CNC(=O)c1ncc(Oc2ccc(NC(=O)Nc3ccc(Cl)c(C(F)(F)F)c3)cc2)c(OC)n1 [Compound 7, N-(4-chloro-3-(trifluoromethyl)phenyl)-N′-(4-(2-(N-methylaminoformoxyl)-5-(4-methoxypyrimidinyl)oxy)phenyl)urea]	99.1	45.30	89.34	68.34	8.30	60.34	39.3	34.2	21.2	21.5	40.1		
CNC(=O)c1ncc(Oc2ccc(NC(=O)Nc3ccc(F)c(C(F)(F)F)c3)cc2)c(OC)n1 [Compound 8, N-(4-fluoro-3-(trifluoromethyl)phenyl)-N′-(4-(2-(N-methylaminoformoxyl)-5-(4-methoxypyrimidinyl)oxy)phenyl)urea]		60.67	89.56	61.56	13.67	78.59	30.5	30.6	29.1	58.2	37.6		
O=C(Nc1ccc(Oc2ccnc3ccccc23)cc1)Nc1ccc(Cl)c(C(F)(F)F)c1 [Compound A′, reference compound]			63.51	71.55	23.11	60.51	43.2	37.2	34.2			58.51	
O=C(Nc1ccc(Oc2ccncn2)cc1)Nc1ccc(Cl)c(C(F)(F)F)c1 [Compound B′, reference compound]			61.60	69.26	31.64	61.62	40.4		30.4			61.62	Relative tumor reproduction rate T/C (%) on human liver cancer cell bel-7402 transplantation tumor model in nude mice ([8]; mouse, in vivo, po): 30.4%
N-(4-fluoro-3-(trifluoromethyl)phenyl)-N′-(4-(4-pyrryl)oxy)phenyl)urea [Compound C′, reference compound]			63.20	68.62	22.27	60.50	36.6	32.6	35.6			62.25	
